*1 amine or outer side, *2 acyl side, *3 side chain or, on linkers, in order; H or OH if unused. Where a SMILES comes first, the peptide text is derived from it. Side-chain parts run from the residue outwards. [ ]: non-standard residue; d: D form. The star is where a group is joined. DOTA = O=C(O)CN1CCN(CC(=O)O)CCN(CC(=O)*)CCN(CC(=O)O)CC1; X1 = O=C([C@@H](Cc1ccc(OS(=O)(=O)F)cc1)N[*:1])[*:2]; 2Nal = N[C@@H](Cc1ccc2ccccc2c1)C(=O)O; dNMeOrn = CN[C@H](CCCN)C(=O)O; 4Amb = NCc1ccc(C(=O)O)cc1
Tests used:
[1] = tested on: AR42J tumor; assay: PET/CT imaging in tumor mouse model with high SSTR2 expression; type: in vivo; details: 7.4-18.5 MBq i.v., 2 hours, p<0.05
Protocol: (§1) All PET/CT scans were carried out on Mediso nanoScan® PET 122S small animal PET/CT.
(§2) A certain number (n=4) of AR42J tumor mice (for the construction method, see the method in Combination radionuclide therapy using ^177Lu-and ^90Y-labeled somatostatin analogs, published by Marion de Jong et al.) were taken and intravenously injected at specified time points with 7.4-18.5 MBq of ^68Ga-DOTATATE (as a control, the labeled precursor is readily commercially available, and the structure is specifically disclosed) and ^68Ga-SSTR2-CB-02 molecules (Note: the injection of the control and investigation molecules was separated apart by at least 12 hours until the previous ^68Ga molecule essentially completely decayed and was essentially completely metabolized). Imaging was carried at the time point of 2 hours, and the SUVmax value in tumor was obtained by a software.

[2] = tested on: Daudi tumor; assay: PET/CT imaging in tumor mouse model with high CXCR4 expression; type: in vivo; details: 7.4-18.5 MBq i.v., 2 hours, p<0.05
Protocol: as §1
as §2, with “Daudi” for “AR42J”, “PET Imaging of CXCR4 Receptors in Cancer by a New Optimized Ligand,” for “Combination radionuclide therapy using ^177Lu-and ^90Y-labeled somatostatin analogs,”, “Oliver Demmer” for “Marion de Jong”, “^68Ga-pentixafor” for “^68Ga-DOTATATE”, “^68Ga-CXCR4-CB-03” for “^68Ga-SSTR2-CB-02”

C[C@@H](O)[C@H](NC(=O)[C@@H]1CSSC[C@H](NC(=O)[C@@H](Cc2ccccc2)NC(=O)CN2CCN(CC(=O)O)CCN(CC(=O)O)CCN(CC(=O)O)CC2)C(=O)N[C@@H](Cc2ccc(OS(=O)(=O)F)cc2)C(=O)N[C@H](Cc2c[nH]c3ccccc23)C(=O)N[C@@H](CCCCN)C(=O)N[C@@H]([C@@H](C)O)C(=O)N1)C(=O)O [^68Ga-SSTR2-CB-02, metal not drawn]
drug tumor uptake (SUVmax) compared with ^68Ga-DOTATATE [1]: significantly higher

CN1C(=O)[C@@H](Cc2ccc(OS(=O)(=O)F)cc2)NC(=O)CNC(=O)[C@H](Cc2ccc3ccccc3c2)NC(=O)[C@H](CCCNC(=N)N)NC(=O)[C@H]1CCCNC(=O)c1ccc(CNC(=O)CN2CCN(CC(=O)O)CCN(CC(=O)O)CCN(CC(=O)O)CC2)cc1 [^68Ga-CXCR4-CB-03, metal not drawn] (cyclo([2Nal]G[X1][dNMeOrn]([4Amb-DOTA])R))
drug tumor uptake (SUVmax) compared with ^68Ga-pentixafor [2]: significantly higher

Reference: US20260137820A1, “TRIFUNCTIONAL COMPOUND AND USE THEREOF” (PEKING UNIVERSITY, priority 2022, published 2026)
